Where a name gives a salt, the structure may show the parent alone. Read-outs that look alike come from different tables or passages of the source.
Experiments:
[1] = system: homozygous progeny of the three mutant sources; type: in vivo, sunflower; conditions: Test B application rates, post-emergence
Protocol: (§1) A greenhouse experiment was conducted to evaluate the spectrum of tolerance of three homozygous resistant mutants to various herbicides inhibiting acetolactate synthase (ALS) as their mode of action. The inbred lines tested were the 5th generation self-pollinated maintainers, M5M7, M5M11 and M5M12, as well as the 4th generation male sterile back-crosses BC4-M5M7, BC4-M5M11 and BC4-M5M12. Treatments of formulated herbicides were applied post-emergence at the 4-leaf stage. Application rates of the test herbicides were chosen to coincide with the rates commonly used in the crops for which they are registered. The application rate of imazethapyr was chosen to match the rate recommended to control parasitic weeds in sunflowers by L. García-Torres et al., Weed Technology 1995, 9, 819-824. Wild type H89 inbred sunflower was not included in this test, because the many of the tested herbicides are known to be efficacious in controlling volunteer sunflower as a weed. Treatments were replicated twice. […] A rating of 0% phytotoxicity means no crop injury.

[2] = system: BC4-M5M12 × PHA155 hybrid; assay: Test E injury to sunflower hybrid; type: in vivo; conditions: in vivo
Protocol: (§2) Based on the results from Test D, a modified protocol was developed to include three timings of post-emergence treatment. The hybrid BC4-M5M12 (female parent)×PHA155 restorer line (male parent) described in Test C was used in this test. Various herbicide programs were tested using three replications. […] Seed coatings of these formulated herbicides were applied to 6 kg of seeds in such amount that considering the distribution of the coated seeds in each pot, the herbicide active ingredient (a.i.) application rates per hectare were as indicated.
(§3) The treatments were applied similar to the methods described for Test D. Pre-emergence applications were broadcast only, not soil incorporated. For pre-emergence application, the pots were sprayed using the high rates of the herbicides two days after sowing the sunflower seeds. Post-emergence treatments were applied at the 4-6 leaf stage of sunflower (corresponding to early stage of Orobanche attachment; identified as “T1”), the 6-8 leaf stage of sunflower (corresponding to the mid stage of Orobanche attachment; nodules <5 mm diameter; identified as “T2”) and 8-12 leaf stage of sunflower (corresponding to late stage of Orobanche attachment; identified as “T3”). The mid-stage applications included the high as well as low application rates of each herbicide.
(§4) For comparison were also included in this test other acetolactate synthase-inhibiting herbicides reported in the literature as giving good weed control of Orobanche (L. García-Torres et al., Weed Research 1994, 34, 395-402; L. García-Torres et al., Weed Technology 1995, 9, 819-824; J. Hershenhorn et al., Weed Technology 1998, 12, 108-114).

BC4-M5M12 = assay: Test B greenhouse phytotoxicity, BC4-M5M12; type: in vivo, sunflower; conditions: in vivo
Protocol: as §1

M5M11 = assay: Test B greenhouse phytotoxicity, M5M11; type: in vivo, sunflower; conditions: in vivo
Protocol: as §1

BC4-M5M11 = assay: Test B greenhouse phytotoxicity, BC4-M5M11; type: in vivo, sunflower; conditions: in vivo
Protocol: as §1

Orobanche cumana = assay: Test E control of Orobanche cumana in resistant sunflower hybrid; type: in vivo
Protocol: The effect of the various treatments was evaluated 35 days after sowing. The sunflower roots were cleaned by washing in water, and the presence of Orobanche nodules was determined visually and by weighing root wet mass in comparison to check plants free of Orobanche infestation. […] The nodules caused by Orobanche increased root weight, and a correlation (r=0.7) was found between visual scores and weight measurements. Thus the weighing technique could be used to corroborate visual efficacy scorings. Orobanche emergence was also scored but found to be less useful to evaluate treatment efficiency at the evaluation timing of this test.
as §2, §3, §4

BC4-M5M7 = assay: Test B greenhouse phytotoxicity, BC4-M5M7; type: in vivo, sunflower; conditions: in vivo
Protocol: as §1

M5M7 = assay: Test B greenhouse phytotoxicity, M5M7; type: in vivo, sunflower; conditions: in vivo
Protocol: as §1

M5M12 = assay: Test B greenhouse phytotoxicity, M5M12; type: in vivo, sunflower; conditions: in vivo
Protocol: as §1

[3] = system: Hybrid control: H89A × RHA274; type: in vivo, sunflower; conditions: variety A
Description: (§5) To generate the hybrids C, D and E, the fourth generation self-pollinated maintainer mutant lines M4M12, M4M11 and M4M7 were chemically sterilized by applying at the bud “star” flower stage a small amount of gibberellic acid solution to sterilize the pollen according to the general method described in Sunflower Science Technology, J. F. Carter ed. (Number 19 in the series “Agronomy”) pp. 339-386. This treatment enables maintainer plants to behave as CMS inbred lines and allows the production of heterozygous resistant hybrids, with the herbicide resistant source coming from the female side. Such crosses allowed evaluating the sexual effect of the mutation source when introduced on the female side of a cross as described in crosses C, D and E versus the male side of a cross as described in crosses F, G and H. Labels I, J and K identify third generation CMS mutant lines crossed with fourth generation maintainer lines to maintain the highly heritable mutant trait in a male sterile homozygous resistant environment. One skilled in sunflower breeding art understands the meaning of such crosses.
(§6) A rating of 0% phytotoxicity means no crop injury.

H89A × M4M11 = type: in vivo, sunflower; conditions: variety G
Description: as §5, §6

H89A × M4M7 = type: in vivo, sunflower; conditions: variety H
Description: as §5, §6

H89A × M4M12 = type: in vivo, sunflower; conditions: variety F
Description: as §5, §6

[4] = system: Inbred line control: H89A; type: in vivo, sunflower; conditions: variety B
Description: as §5, §6

GA-M4M11 × RHA274 = assay: Test A field trial, phytotoxicity, variety D; type: in vivo, sunflower; conditions: variety D
Description: as §5, §6

GA-M4M12 × RHA274 = assay: Test A field trial, phytotoxicity, variety C; type: in vivo, sunflower; conditions: variety C
Description: as §5, §6

GA-M4M7 × RHA274 = assay: Test A field trial, phytotoxicity, variety E; type: in vivo, sunflower; conditions: variety E
Description: as §5, §6

BC3-M4M12 = assay: Test A field trial, phytotoxicity, variety I; type: in vivo, sunflower; conditions: variety I
Description: as §5, §6

BC4-M5M12 × PHA155 = assay: Test C field phytotoxicity, BC4-M5M12 × PHA155; type: in vivo, sunflower
Description: as §6

BC3-M4M7 = assay: Test A field trial, phytotoxicity, variety K; type: in vivo, sunflower; conditions: variety K
Description: as §5, §6

BC3-M4M11 = assay: Test A field trial, phytotoxicity, variety J; type: in vivo, sunflower; conditions: variety J
Description: as §5, §6

[5] = system: Homozygous resistant inbred lines, BC3-M4M12 (I), BC3-M4M11 (J) and BC3-M4M7 (K); assay: Test A summary, homozygous resistant inbred lines; conditions: Test A application rates; for tolerance of homozygous resistant inbred lines I, J, K: triflusulfuron-methyl at 20 g a.i./ha
Protocol: In a small field trial, the sunflower varieties described in Table 4 were sprayed post-emergence with a variety of sulfonylurea herbicide treatments.
Broadcast post-emergence applications of formulated sulfonylurea herbicides were performed at the 6-leaf development stage using four randomly distributed replications. Application rates were chosen to match the usual use rates of these herbicides in the crops they are registered in Europe. All herbicides except for metsulfuron-methyl were sprayed in combination with Citowet® non-ionic ethoxylated alcohol at 0.25% volume of formulated product per volume of water applied per hectare.
The evaluation of the maximum (i.e. peak) injury to sunflower varieties by sulfonylurea herbicides was measured by visual ratings, which are listed in Table 5. A rating of 0% phytotoxicity means no crop injury. […] A rating of 100% means the complete destruction of all plants.

BC4-M5M7 × PHA155 = assay: Test C field phytotoxicity, BC4-M5M7 × PHA155; type: in vivo, sunflower
Description: as §6

[6] = postemergence 18.75 g a.i./ha, 7 DAT
[7] = postemergence 18.75 g a.i./ha, 15 DAT
[8] = postemergence 18.75 g a.i./ha, 30 DAT
[9] = postemergence 37.5 g a.i./ha, 7 DAT
[10] = postemergence 37.5 g a.i./ha, 15 DAT
[11] = postemergence 37.5 g a.i./ha, 30 DAT

SMILES: CCc1cnc(C2=NC(C)(C(C)C)C(=O)N2)c(C(=O)O)c1 (stereo not drawn) [Imazethapyr (ammonium salt), Imazethapyr]
- tolerance of the mutants [1]: marginal tolerance
- Injury [2]: 0%
- Maximum Phytotoxicity (BC4-M5M12): 30%
- Maximum Phytotoxicity (M5M11): 30%
- Maximum Phytotoxicity (BC4-M5M11): 25%
- relative efficacy in controlling Orobanche (Orobanche cumana; Test E rates, metsulfuron-methyl compared with tribenuron-methyl): less efficacious in controlling Orobanche
- Control (Orobanche cumana; pre-emergence 40 g a.i./ha): 60%
- Maximum Phytotoxicity (BC4-M5M7): 20%
- Maximum Phytotoxicity (M5M7): 22.5%
- Maximum Phytotoxicity (M5M12): 22.5%

SMILES: COc1cc(OC)nc(NC(=O)NS(=O)(=O)c2ncccc2C(=O)N(C)C)n1 [Nicosulfuron, nicosulfuron]
- Maximum Phytotoxicity ([3]; 30 g a.i./ha post-emergence): 33%
- Maximum Phytotoxicity (H89A × M4M11; 30 g a.i./ha post-emergence): 20%
- Maximum Phytotoxicity (H89A × M4M7; 30 g a.i./ha post-emergence): 16%
- Maximum Phytotoxicity (H89A × M4M12; 30 g a.i./ha post-emergence): 15%
- Maximum Phytotoxicity ([4]; 30 g a.i./ha post-emergence): 54%
- Maximum Phytotoxicity (GA-M4M11 × RHA274; 30 g a.i./ha post-emergence): 13%
- Maximum Phytotoxicity (GA-M4M12 × RHA274; 30 g a.i./ha post-emergence): 12%
- Maximum Phytotoxicity (GA-M4M7 × RHA274; 30 g a.i./ha post-emergence): 13%
- Maximum Phytotoxicity (BC3-M4M12; 30 g a.i./ha post-emergence): 8%
- Phytotoxicity Rating After Treatment (BC4-M5M12 × PHA155; [6]): 28%
- Phytotoxicity Rating After Treatment (BC4-M5M12 × PHA155; [7]): 20%
- Phytotoxicity Rating After Treatment (BC4-M5M12 × PHA155; [8]): 18%
- Phytotoxicity Rating After Treatment (BC4-M5M12 × PHA155; [9]): 42%
- Phytotoxicity Rating After Treatment (BC4-M5M12 × PHA155; [10]): 52%
- Phytotoxicity Rating After Treatment (BC4-M5M12 × PHA155; [11]): 50%
- Maximum Phytotoxicity (BC3-M4M7; 30 g a.i./ha post-emergence): 14%
- Maximum Phytotoxicity (BC3-M4M11; 30 g a.i./ha post-emergence): 23%
- tolerance of homozygous resistant lines compared with heterozygous hybrids [5]: the homozygous resistant lines were more tolerant
- tolerance of homozygous resistant inbred lines I, J, K [5]: marginally tolerant
- Phytotoxicity Rating After Treatment (BC4-M5M7 × PHA155; [6]): 37%
- Phytotoxicity Rating After Treatment (BC4-M5M7 × PHA155; [7]): 40%
- Phytotoxicity Rating After Treatment (BC4-M5M7 × PHA155; [8]): 18%
- Phytotoxicity Rating After Treatment (BC4-M5M7 × PHA155; [9]): 57%
- Phytotoxicity Rating After Treatment (BC4-M5M7 × PHA155; [10]): 55%
- Phytotoxicity Rating After Treatment (BC4-M5M7 × PHA155; [11]): 50%

SMILES: COC(=O)c1ccccc1S(=O)(=O)NC(=O)Nc1nc(OC(F)F)cc(OC(F)F)n1 [Primisulfuron-methyl, primisulfuron-methyl]
- Maximum Phytotoxicity ([3]; 30 g a.i./ha post-emergence): 100%
- Maximum Phytotoxicity (H89A × M4M11; 30 g a.i./ha post-emergence): 73%
- Maximum Phytotoxicity (H89A × M4M7; 30 g a.i./ha post-emergence): 69%
- Maximum Phytotoxicity (H89A × M4M12; 30 g a.i./ha post-emergence): 66%
- Maximum Phytotoxicity ([4]; 30 g a.i./ha post-emergence): 100%
- Maximum Phytotoxicity (GA-M4M11 × RHA274; 30 g a.i./ha post-emergence): 75%
- Maximum Phytotoxicity (GA-M4M12 × RHA274; 30 g a.i./ha post-emergence): 71%
- Maximum Phytotoxicity (GA-M4M7 × RHA274; 30 g a.i./ha post-emergence): 74%
- Maximum Phytotoxicity (BC3-M4M12; 30 g a.i./ha post-emergence): 35%
- Maximum Phytotoxicity (BC3-M4M7; 30 g a.i./ha post-emergence): 51%
- Maximum Phytotoxicity (BC3-M4M11; 30 g a.i./ha post-emergence): 55%
- tolerance of homozygous resistant lines compared with heterozygous hybrids [5]: the homozygous resistant lines were more tolerant
- tolerance of homozygous resistant inbred lines I, J, K [5]: less susceptible than the standards

SMILES: COc1nc(C)nc(NC(=O)NS(=O)(=O)c2ccccc2OCCCl)n1 [Triasulfuron, triasulfuron]
- Maximum Phytotoxicity ([3]; 20 g a.i./ha post-emergence): 100%
- Maximum Phytotoxicity (H89A × M4M11; 20 g a.i./ha post-emergence): 98%
- Maximum Phytotoxicity (H89A × M4M7; 20 g a.i./ha post-emergence): 98%
- Maximum Phytotoxicity (H89A × M4M12; 20 g a.i./ha post-emergence): 98%
- Maximum Phytotoxicity ([4]; 20 g a.i./ha post-emergence): 100%
- Maximum Phytotoxicity (GA-M4M11 × RHA274; 20 g a.i./ha post-emergence): 99%
- Maximum Phytotoxicity (GA-M4M12 × RHA274; 20 g a.i./ha post-emergence): 94%
- Maximum Phytotoxicity (GA-M4M7 × RHA274; 20 g a.i./ha post-emergence): 97%
- Maximum Phytotoxicity (BC3-M4M12; 20 g a.i./ha post-emergence): 93%
- Maximum Phytotoxicity (BC3-M4M7; 20 g a.i./ha post-emergence): 95%
- Maximum Phytotoxicity (BC3-M4M11; 20 g a.i./ha post-emergence): 95%
- tolerance of homozygous resistant inbred lines I, J, K [5]: as susceptible as the standards

Source: patent US6822146B2, “Sulfonylurea-tolerant sunflower line M7” (priority 2000, dated 2004)
